# Results from patent US9334498B2, “Methods and compositions for modulating MIR-204 activity” (UAB Research Foundation, priority 2012, dated 2016).
# Oligonucleotides are written 5' to 3', each unit as a sugar letter and its base; * is a phosphorothioate linkage, no mark a phosphodiester; rarer units and linkages stand in square brackets, end groups in braces. Plain capitals give the bases only. {Chol} = cholesterol; m = 2'-O-methyl
# Assays:
# miR-204 = test: Antagomir pilot studies in vivo: islet miR-204 expression; set-up: species or system mouse; details: after just one injection
# Experimental: miR-204 knock down (in vitro and in vivo). We will utilize the miR204 inhibitor oligo (IN-320505-05; meridian Hairpin Inhibitor rno-miR-204) or scrambled control (IN-001005-01-05) (Dharmacon) to perform transfection experiments in INS-1 cells and primary human islets as mentioned above and described herein. This microRNA inhibitor oligonucleotide specifically binds to miR-204 and targets it for degradation. In fact, 72 h after transfection we saw a significant ˜5-fold reduction in miR-204 expression, but no effect on other microRNAs (data not shown) confirming the effectiveness and specificity of this approach. […] Therefore, after diabetes has been confirmed by blood glucose readings over 250 mg/dL on two consecutive days, these obese and diabetic male mice and their lean, non-diabetic littermates will again be divided into three treatment groups and will receive antagomir, mutant antagomir or saline injections as described for the wild-type mice. In all mice, blood glucose levels will be assessed daily (by glucometer) and serum will be collected before injection and prior to sacrifice for measurement of insulin levels (by ELISA)(17). […]
# STAT3 = molecular target: T1, STAT3 (Rattus norvegicus, UniProt P52631); test: STAT3 inhibition in INS-1 cells, expression by qRT-PCR; type: cell-based
# T1 construct: endogenous in cells; host or cells: INS-1 rat beta cells
# T1 sequence (P52631 whole entry): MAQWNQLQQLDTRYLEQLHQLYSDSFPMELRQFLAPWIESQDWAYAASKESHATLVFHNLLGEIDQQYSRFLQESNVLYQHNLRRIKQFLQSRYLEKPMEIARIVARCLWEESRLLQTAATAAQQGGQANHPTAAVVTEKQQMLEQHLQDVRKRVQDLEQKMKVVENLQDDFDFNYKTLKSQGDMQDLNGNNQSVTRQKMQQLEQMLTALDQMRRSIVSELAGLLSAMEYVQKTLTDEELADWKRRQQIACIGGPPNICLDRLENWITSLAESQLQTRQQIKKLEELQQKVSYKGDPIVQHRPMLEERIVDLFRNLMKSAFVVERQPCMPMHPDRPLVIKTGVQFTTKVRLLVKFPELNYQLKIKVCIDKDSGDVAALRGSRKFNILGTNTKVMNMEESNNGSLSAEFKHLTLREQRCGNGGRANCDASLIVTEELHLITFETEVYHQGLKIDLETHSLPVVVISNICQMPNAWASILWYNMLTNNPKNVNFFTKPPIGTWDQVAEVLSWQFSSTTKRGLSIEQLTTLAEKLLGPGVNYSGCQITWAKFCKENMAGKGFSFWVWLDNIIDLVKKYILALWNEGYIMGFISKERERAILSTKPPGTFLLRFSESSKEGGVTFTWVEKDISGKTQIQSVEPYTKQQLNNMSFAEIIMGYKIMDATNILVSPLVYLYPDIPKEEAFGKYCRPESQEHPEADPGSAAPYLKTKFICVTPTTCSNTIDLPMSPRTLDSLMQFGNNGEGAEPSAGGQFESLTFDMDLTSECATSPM
# Experimental: FIG. 18. Effects of TXNIP and diabetes on beta cell miR-204 expression. Expression of miR-204 was assessed by qRT-PCR in (A) INS-1 cells overexpressing TXNIP (INS-TXNIP) and control (INS-LacZ) cells, (B) primary islets of TXNIP-deficient HcB-19 and C3H control mice, and (C) primary islets of beta-cell-specific TXNIP knockout bTKO and lox/lox control mice. (D) TXNIP effects on STAT3 activation were determined by immunoblotting for phospho-STAT3 (p-STAT3) and total STAT3 in INS-TXNIP and control INS-LacZ cells. (E) To determine the role of STAT3 in miR-204 expression, INS-1 cells were incubated with the STAT3 inhibitor STATTIC (2 μM for 48 hr) or vehicle (DMSO) and the expression of miR-204 was detected by qRT-PCR. (F) To assess the effect of diabetes on miR-204 expression, primary islets of 10-week old, male, diabetic ob/ob or lean control mice were analyzed by qRT-PCR. Bars represent means±SEM; n=3-5 independent experiments.
# miR-204 is encoded within intron 6 of the TRPM3 gene (transient receptor potential melastatin 3, a cation-selective channel) and is transcribed in the same direction as TRPM3^30. Since miR-204 and TRPM3 are therefore sharing the same promoter, we deduced that, if TXNIP were to regulate miR-204 expression at the transcriptional level, TRPM3 would be co-regulated in parallel. […]
molecule,measurement,setting,value
5′-mA(*)mG(*)mGmCmAmUmAmGmGmAmUmGmAmCmAmAmAmG mG(*)mG(*)mA(*) mA(*)-3Chl (antisense mA*mG*mGmCmAmUmAmGmGmAmUmGmAmCmAmAmAmGmG*mG*mA*mA*{Chol}) [miR-204 antagomir],reduction in islet miR-204 expression,miR-204,~2 fold
O=[N+]([O-])c1ccc2c(c1)S(=O)(=O)C=C2 [STATTIC],TRPM3 (host gene) expression,STAT3,significantly induced
same,miR-204 expression,STAT3; 2 μM for 48 hr vs DMSO,significantly induced
